“Also recorded” adds a separate entry of the source.
How the values were obtained:
FLT3(N841I) = molecular target: T1, FLT3(N841I) (Homo sapiens, UniProt P36888, N841I); test: KINOMEscan; type: binding; conditions: 1 μM of compound 4; read-out: POC
T1 construct: purchased Eurofins DiscoverX Corporation

DLK = DLK (Homo sapiens, UniProt Q12852); test: KINOMEscan; type: binding; conditions: 1 μM of compound 4; read-out: POC
MEK6 = MEK6 (Homo sapiens, UniProt P52564); test: KINOMEscan; type: binding; conditions: 1 μM of compound 4; read-out: POC
CDKL1 = CDKL1 (Homo sapiens, UniProt Q00532); test: KINOMEscan; type: binding; conditions: 1 μM of compound 4; read-out: POC
PRKCD = PRKCD (Homo sapiens, UniProt Q05655); test: KINOMEscan; type: binding; conditions: 1 μM of compound 4; read-out: POC
[1] = molecular target: T2, ABL1(F317L)-nonphosphorylated (Homo sapiens, UniProt P00519, F317L); test: KINOMEscan; type: binding; conditions: 1 μM of compound 4; read-out: POC
T2 construct: purchased Eurofins DiscoverX Corporation

PFPK5(P. falciparum) = molecular target: T3, PFPK5(P. falciparum) (Plasmodium falciparum, UniProt P61075); test: KINOMEscan; type: binding; conditions: 1 μM of compound 4; read-out: POC
T3 construct: purchased Eurofins DiscoverX Corporation (KINOMEscan)

MUSK = MUSK (Homo sapiens, UniProt O15146); test: KINOMEscan; type: binding; conditions: 1 μM of compound 4; read-out: POC
EGFR(T790M) = molecular target: T4, EGFR(T790M) (Homo sapiens, UniProt P00533, T790M); test: KINOMEscan; type: binding; conditions: 1 μM of compound 4; read-out: POC
T4 construct: purchased Eurofins DiscoverX (KINOMEscan service)

KIT(L576P) = KIT(L576P) (Homo sapiens, UniProt P10721, L576P); test: KINOMEscan; type: binding; conditions: 1 μM of compound 4; read-out: POC
PRKD1 = PRKD1 (Homo sapiens, UniProt Q15139); test: KINOMEscan; type: binding; conditions: 1 μM of compound 4; read-out: POC
PRKD3 = PRKD3 (Homo sapiens, UniProt O94806); test: KINOMEscan; type: binding; conditions: 1 μM of compound 4; read-out: POC
MAP3K1 = MAP3K1 (Homo sapiens, UniProt Q13233); test: KINOMEscan; type: binding; conditions: 1 μM of compound 4; read-out: POC
ACVR2A = ACVR2A (Homo sapiens, UniProt P27037); test: KINOMEscan; type: binding; conditions: 1 μM of compound 4; read-out: POC
MLK1 = MLK1 (Homo sapiens, UniProt P80192); test: KINOMEscan; type: binding; conditions: 1 μM of compound 4; read-out: POC
EPHB6 = molecular target: T5, EPHB6 (Homo sapiens, UniProt O15197); test: KINOMEscan; type: binding; conditions: 1 μM of compound 4; read-out: POC
T5 construct: purchased Eurofins DiscoverX (KINOMEscan service)

[2] = tested on: EGFR (L858R/T790M) in H1975 lung cancer cells; test: Western blotting of EGFR, ERK1/2 and AKT phosphorylation; type: cell-based, human; conditions: 6 hours treatment
Experimental: FIG. 2. […] All experiments performed after 6 hours treatments of inhibitors or DMSO controls and Western blots are representative of at least three independent experiments.
Western blotting. Cells were collected and lysed with lysis buffer (5M NaCl, 1M TRIS pH 8.0, 10% SDS, 10% Triton X-100 and a tablet of protease inhibitors) and processed for Western blotting analysis. Primary antibodies used; phospho-EGFR (Tyr1068; #2234, 1:1,000), EGFR (#4267; 1:1,000), phospho-AKT (Ser473; #4060, 1:1,000), AKT (#9272, 1:1,000), phospho-ERK1/2 (Thr202/Tyr204; #4370, 1:1,000), and ERK1/2 (#4695, 1:1,000) antibodies; were purchased from Cell Signaling Technology. Secondary Goat anti-rabbit IgG starbright blue 700 and Anti-tubulin hFAB Rhodamine Tubulin were purchased from Bio-rad.

PRKR = PRKR (Homo sapiens, UniProt P19525); test: KINOMEscan; type: binding; conditions: 1 μM of compound 4; read-out: POC
EPHB4 = molecular target: T6, EPHB4 (Homo sapiens, UniProt P54760); test: KINOMEscan; type: binding; conditions: 1 μM of compound 4; read-out: POC
T6 construct: purchased Eurofins DiscoverX (KINOMEscan service)

PKAC-beta = PKAC-beta (Homo sapiens, UniProt P22694); test: KINOMEscan; type: binding; conditions: 1 μM of compound 4; read-out: POC
CDKL5 = CDKL5 (Homo sapiens, UniProt O76039); test: KINOMEscan; type: binding; conditions: 1 μM of compound 4; read-out: POC
PAK1 = molecular target: T7, PAK1 (Homo sapiens, UniProt Q13153); test: KINOMEscan; type: binding; conditions: 1 μM of compound 4; read-out: POC
T7 construct: purchased Eurofins DiscoverX Corporation (KINOMEscan)

KIT-autoinhibited = KIT-autoinhibited (Homo sapiens, UniProt P10721); test: KINOMEscan; type: binding; conditions: 1 μM of compound 4; read-out: POC
YSK1 = molecular target: T8, YSK1 (Homo sapiens, UniProt O00506); test: KINOMEscan; type: binding; conditions: 1 μM of compound 4; read-out: POC
T8 construct: purchased Eurofins DiscoverX

ULK3 = molecular target: T9, ULK3 (Homo sapiens, UniProt Q6PHR2); test: KINOMEscan; type: binding; conditions: 1 μM of compound 4; read-out: POC
T9 construct: purchased Eurofins DiscoverX

EPHA6 = molecular target: T10, EPHA6 (Homo sapiens, UniProt Q9UF33); test: KINOMEscan; type: binding; conditions: 1 μM of compound 4; read-out: POC
T10 construct: purchased Eurofins DiscoverX (KINOMEscan service)

EPHB2 = molecular target: T11, EPHB2 (Homo sapiens, UniProt P29323); test: KINOMEscan; type: binding; conditions: 1 μM of compound 4; read-out: POC
T11 construct: purchased Eurofins DiscoverX (KINOMEscan service)

FLT3(R834Q) = molecular target: T12, FLT3(R834Q) (Homo sapiens, UniProt P36888, R834Q); test: KINOMEscan; type: binding; conditions: 1 μM of compound 4; read-out: POC
T12 construct: purchased Eurofins DiscoverX Corporation

CDC2L2 = CDC2L2 (Homo sapiens, UniProt Q9UQ88); test: KINOMEscan; type: binding; conditions: 1 μM of compound 4; read-out: POC
CAMK1B = CAMK1B (Homo sapiens, UniProt Q6P2M8); test: KINOMEscan; type: binding; conditions: 1 μM of compound 4; read-out: POC
[3] = molecular target: JAK3(JH1domain-catalytic) (Homo sapiens, UniProt P52333); test: KINOMEscan; type: binding; conditions: 1 μM of compound 4; read-out: POC
MEK1 = MEK1 (Homo sapiens, UniProt Q02750); test: KINOMEscan; type: binding; conditions: 1 μM of compound 4; read-out: POC
TGFBR1 = molecular target: T13, TGFBR1 (Homo sapiens, UniProt P36897); test: KINOMEscan; type: binding; conditions: 1 μM of compound 4; read-out: POC
T13 construct: purchased Eurofins DiscoverX Corporation

TAOK2 = molecular target: T14, TAOK2 (Homo sapiens, UniProt Q9UL54); test: KINOMEscan; type: binding; conditions: 1 μM of compound 4; read-out: POC
T14 construct: purchased Eurofins DiscoverX Corporation

T2 sequence (P00519 whole entry F317L): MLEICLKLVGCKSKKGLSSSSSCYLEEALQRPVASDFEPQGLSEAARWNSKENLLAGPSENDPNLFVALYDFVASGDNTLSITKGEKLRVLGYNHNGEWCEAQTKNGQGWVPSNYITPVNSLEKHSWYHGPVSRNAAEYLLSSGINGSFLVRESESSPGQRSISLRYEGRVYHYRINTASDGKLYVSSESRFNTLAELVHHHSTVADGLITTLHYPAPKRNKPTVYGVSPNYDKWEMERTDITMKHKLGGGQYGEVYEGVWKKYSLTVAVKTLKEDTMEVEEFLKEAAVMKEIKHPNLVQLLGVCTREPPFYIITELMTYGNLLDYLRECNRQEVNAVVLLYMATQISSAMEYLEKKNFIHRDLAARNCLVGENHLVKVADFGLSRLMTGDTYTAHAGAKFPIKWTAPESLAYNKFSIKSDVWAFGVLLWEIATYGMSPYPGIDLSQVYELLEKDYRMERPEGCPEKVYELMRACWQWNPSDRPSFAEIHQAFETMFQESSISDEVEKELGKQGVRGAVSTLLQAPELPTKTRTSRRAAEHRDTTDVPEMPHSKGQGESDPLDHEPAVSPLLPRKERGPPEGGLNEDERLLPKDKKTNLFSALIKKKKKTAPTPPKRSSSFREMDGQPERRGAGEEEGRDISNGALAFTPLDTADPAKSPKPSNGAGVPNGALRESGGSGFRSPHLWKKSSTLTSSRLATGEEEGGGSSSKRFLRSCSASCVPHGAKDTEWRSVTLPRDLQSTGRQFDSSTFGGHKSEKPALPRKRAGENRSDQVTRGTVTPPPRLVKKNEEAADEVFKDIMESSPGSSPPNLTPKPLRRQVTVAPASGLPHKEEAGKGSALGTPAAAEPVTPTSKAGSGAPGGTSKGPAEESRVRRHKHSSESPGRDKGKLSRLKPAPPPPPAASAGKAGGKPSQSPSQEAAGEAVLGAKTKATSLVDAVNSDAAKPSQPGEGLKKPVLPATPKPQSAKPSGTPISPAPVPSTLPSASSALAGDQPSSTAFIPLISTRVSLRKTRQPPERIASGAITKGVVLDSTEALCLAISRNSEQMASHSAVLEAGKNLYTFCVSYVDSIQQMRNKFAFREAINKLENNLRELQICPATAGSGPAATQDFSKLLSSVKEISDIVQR
T11 sequence (P29323 19-1055): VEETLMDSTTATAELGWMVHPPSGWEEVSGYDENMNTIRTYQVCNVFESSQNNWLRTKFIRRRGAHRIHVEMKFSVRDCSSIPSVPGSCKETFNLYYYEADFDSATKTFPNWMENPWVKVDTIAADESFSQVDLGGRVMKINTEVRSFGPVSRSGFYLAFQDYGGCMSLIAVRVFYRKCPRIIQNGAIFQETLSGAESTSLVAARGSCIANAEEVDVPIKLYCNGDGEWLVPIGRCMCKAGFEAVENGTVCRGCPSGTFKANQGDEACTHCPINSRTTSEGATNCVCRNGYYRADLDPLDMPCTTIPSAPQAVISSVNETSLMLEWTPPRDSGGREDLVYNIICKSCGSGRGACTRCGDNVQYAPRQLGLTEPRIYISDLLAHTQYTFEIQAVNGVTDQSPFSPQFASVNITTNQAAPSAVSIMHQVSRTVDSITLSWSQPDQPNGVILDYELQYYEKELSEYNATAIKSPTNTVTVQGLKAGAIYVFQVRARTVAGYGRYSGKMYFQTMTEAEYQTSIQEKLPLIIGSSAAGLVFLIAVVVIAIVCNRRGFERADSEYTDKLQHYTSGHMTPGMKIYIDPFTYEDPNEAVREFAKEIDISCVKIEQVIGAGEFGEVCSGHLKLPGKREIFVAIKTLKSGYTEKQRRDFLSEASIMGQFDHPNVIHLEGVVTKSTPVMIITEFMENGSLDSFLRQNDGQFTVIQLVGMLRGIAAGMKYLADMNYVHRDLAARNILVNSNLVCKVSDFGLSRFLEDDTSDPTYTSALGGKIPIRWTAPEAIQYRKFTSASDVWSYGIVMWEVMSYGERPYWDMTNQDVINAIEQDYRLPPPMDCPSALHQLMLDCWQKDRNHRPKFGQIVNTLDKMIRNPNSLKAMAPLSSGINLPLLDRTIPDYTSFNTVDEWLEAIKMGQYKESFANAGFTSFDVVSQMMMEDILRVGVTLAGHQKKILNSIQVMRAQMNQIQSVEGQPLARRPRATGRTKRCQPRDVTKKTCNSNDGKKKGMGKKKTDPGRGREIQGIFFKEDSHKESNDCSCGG
T13 sequence (P36897 34-503): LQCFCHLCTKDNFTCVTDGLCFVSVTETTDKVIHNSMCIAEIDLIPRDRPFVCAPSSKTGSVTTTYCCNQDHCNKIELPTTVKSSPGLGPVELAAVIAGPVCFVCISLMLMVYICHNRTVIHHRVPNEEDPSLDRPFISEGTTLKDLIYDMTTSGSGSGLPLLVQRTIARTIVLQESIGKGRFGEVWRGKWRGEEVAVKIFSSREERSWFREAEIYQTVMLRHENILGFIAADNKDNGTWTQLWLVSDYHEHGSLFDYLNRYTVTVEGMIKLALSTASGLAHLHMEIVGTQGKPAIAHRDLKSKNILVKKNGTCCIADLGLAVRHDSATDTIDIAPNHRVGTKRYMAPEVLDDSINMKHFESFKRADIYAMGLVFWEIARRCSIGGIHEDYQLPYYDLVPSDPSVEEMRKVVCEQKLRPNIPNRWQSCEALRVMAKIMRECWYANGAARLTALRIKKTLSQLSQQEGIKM
Sequence of PRKCD (Q05655 whole entry): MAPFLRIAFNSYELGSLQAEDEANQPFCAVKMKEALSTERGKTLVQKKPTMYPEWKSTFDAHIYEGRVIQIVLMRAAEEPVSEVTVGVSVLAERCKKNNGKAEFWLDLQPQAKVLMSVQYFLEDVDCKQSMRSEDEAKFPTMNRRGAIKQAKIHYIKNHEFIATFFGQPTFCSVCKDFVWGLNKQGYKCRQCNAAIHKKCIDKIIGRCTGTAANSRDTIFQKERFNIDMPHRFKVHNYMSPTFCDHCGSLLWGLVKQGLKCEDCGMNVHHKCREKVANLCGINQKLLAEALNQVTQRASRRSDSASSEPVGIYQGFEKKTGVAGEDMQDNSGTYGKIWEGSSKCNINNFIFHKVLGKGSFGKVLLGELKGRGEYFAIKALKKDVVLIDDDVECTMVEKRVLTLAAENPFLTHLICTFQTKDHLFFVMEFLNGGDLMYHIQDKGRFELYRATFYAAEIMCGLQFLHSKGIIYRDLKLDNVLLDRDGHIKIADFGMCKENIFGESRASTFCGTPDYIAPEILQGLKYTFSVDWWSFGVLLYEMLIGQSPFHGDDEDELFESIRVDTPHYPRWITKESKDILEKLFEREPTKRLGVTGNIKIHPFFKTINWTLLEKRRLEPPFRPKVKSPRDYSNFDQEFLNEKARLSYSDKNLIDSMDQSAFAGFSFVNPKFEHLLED
Sequence of MAP3K1 (Q13233 whole entry): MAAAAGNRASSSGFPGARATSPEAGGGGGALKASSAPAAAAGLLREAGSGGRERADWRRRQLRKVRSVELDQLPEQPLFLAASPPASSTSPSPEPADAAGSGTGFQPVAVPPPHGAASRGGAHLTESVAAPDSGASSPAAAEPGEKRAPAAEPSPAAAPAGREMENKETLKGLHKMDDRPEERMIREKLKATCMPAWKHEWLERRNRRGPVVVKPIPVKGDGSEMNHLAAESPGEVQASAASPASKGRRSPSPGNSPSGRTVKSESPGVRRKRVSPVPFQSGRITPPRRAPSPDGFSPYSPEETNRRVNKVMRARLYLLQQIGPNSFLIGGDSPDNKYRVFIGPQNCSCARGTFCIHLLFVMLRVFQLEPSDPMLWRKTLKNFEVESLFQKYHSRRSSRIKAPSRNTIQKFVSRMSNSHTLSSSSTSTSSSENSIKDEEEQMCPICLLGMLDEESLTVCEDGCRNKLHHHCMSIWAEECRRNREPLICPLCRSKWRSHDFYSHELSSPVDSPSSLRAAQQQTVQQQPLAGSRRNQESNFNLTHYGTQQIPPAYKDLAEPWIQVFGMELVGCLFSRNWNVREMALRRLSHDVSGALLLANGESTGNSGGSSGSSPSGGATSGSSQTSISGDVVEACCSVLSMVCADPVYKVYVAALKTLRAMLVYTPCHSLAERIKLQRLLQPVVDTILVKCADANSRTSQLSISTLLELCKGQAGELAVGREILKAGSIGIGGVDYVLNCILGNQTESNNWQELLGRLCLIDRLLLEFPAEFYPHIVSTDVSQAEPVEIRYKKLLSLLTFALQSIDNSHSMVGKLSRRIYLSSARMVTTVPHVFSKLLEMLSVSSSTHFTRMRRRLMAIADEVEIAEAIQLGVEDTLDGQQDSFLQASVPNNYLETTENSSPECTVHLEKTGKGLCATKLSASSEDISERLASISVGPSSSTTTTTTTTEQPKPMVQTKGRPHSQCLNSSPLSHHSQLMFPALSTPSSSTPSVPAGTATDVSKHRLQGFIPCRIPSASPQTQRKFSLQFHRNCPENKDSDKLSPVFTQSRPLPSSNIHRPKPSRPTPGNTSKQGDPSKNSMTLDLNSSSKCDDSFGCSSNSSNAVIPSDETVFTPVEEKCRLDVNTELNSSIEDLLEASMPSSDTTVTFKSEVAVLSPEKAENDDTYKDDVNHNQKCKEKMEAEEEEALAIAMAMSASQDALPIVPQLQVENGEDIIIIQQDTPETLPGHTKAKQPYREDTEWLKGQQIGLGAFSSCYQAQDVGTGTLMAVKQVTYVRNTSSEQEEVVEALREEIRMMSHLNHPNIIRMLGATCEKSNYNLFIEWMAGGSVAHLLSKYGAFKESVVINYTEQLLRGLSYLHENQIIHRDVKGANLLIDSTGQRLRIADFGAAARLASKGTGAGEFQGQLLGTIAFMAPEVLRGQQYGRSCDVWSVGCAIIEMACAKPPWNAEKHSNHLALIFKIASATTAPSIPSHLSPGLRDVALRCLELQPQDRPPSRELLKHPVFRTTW

C=CC(=O)Nc1ccc(OC)c(Nc2cc(-c3[nH]c(CC)nc3-c3cccc(NC(=O)c4cccc5c4NC(=O)c4ccccc4N5)c3)ccn2)c1 [Compound 4, N-(3-(5-(2-((5-Acrylamido-2-methoxyphenyl)amino)pyridin-4-yl)-2-ethyl-1H-imidazol-4-yl)phenyl)-11-oxo-10,11-dihydro-5H-dibenzo[b,e][1,4]diazepine-9-carboxamide]
remaining binding at 1 µM (FLT3(N841I)): 97% | remaining binding at 1 µM (DLK): 100% | remaining binding at 1 µM (MEK6): 73% | remaining binding at 1 µM (CDKL1): 100% | remaining binding at 1 µM (PRKCD): 55% | remaining binding at 1 µM [1]: 37% | remaining binding at 1 µM (PFPK5(P. falciparum)): 100% | remaining binding at 1 µM (MUSK): 100% | remaining binding at 1 µM (EGFR(T790M)): 12% | remaining binding at 1 µM (KIT(L576P)): 84% | remaining binding at 1 µM (PRKD1): 42% | remaining binding at 1 µM (PRKD3): 67% | remaining binding at 1 µM (MAP3K1): 100% | remaining binding at 1 µM (ACVR2A): 77% | remaining binding at 1 µM (MLK1): 86% | remaining binding at 1 µM (EPHB6): 100% | EGFR, ERK1/2 and AKT phosphorylation (Western blot) [2]: most effective in suppression of active EGFR (pY1068) as well as downstream pERK; also recorded: reduces EGFR (L858R/T790M), ERK1/2, and AKT phosphorylation | remaining binding at 1 µM (PRKR): 87% | remaining binding at 1 µM (EPHB4): 100% | remaining binding at 1 µM (PKAC-beta): 98% | remaining binding at 1 µM (CDKL5): 98% | remaining binding at 1 µM (PAK1): 100% | remaining binding at 1 µM (KIT-autoinhibited): 100% | remaining binding at 1 µM (YSK1): 76% | remaining binding at 1 µM (ULK3): 100% | remaining binding at 1 µM (EPHA6): 90% | remaining binding at 1 µM (EPHB2): 100% | remaining binding at 1 µM (FLT3(R834Q)): 100% | remaining binding at 1 µM (CDC2L2): 91% | remaining binding at 1 µM (CAMK1B): 94% | remaining binding at 1 µM [3]: 100% | remaining binding at 1 µM (MEK1): 100% | remaining binding at 1 µM (TGFBR1): 75% | remaining binding at 1 µM (TAOK2): 100%

From patent US20260224588A1, “BENZODIAZEPINONE-DERIVED INHIBITORS OF EGFR AND HER2” (The Research Foundation for the State University of New York, priority 2023, published 2026)
